Patent publication US12173007B2, “Imidazopyridazine IL-17 inhibitor compounds” (Janssen Pharmaceutica NV, priority 2021, dated 2024)

How the values were obtained:
[1] = biological target: T1, IL-17A(FLAG-Tagged): IL-17RA(His-Tagged) binding (Homo sapiens, UniProt Q16552, K93Q); assay: IL-17A(FLAG-tagged):IL-17RA(His-tagged) binding disruption Eu-HTRF assay, Protocol 1; conditions: FLAG-IL-17A 2.5 nM; average if tested more than once
From the text: IL-17A(FLAG-Tagged): IL-17RA(His-Tagged) Binding Disruption Eu-HTRF Assay
An antibody directed against the FLAG tag of IL-17A (SEQ ID NO: 1) is labeled with the HTRF donor chromophore (Europium-cryptate). IL-17A is present as a dimer that is “locked into” this quaternary structure due to the formation of loop-spanning […] disulfide bridges. The construct of IL-17RA used in the assay excludes the […] portion of the receptor and is fused to a C-terminal 10×His tag (SEQ ID NO:2). An antibody directed against the His tag of the IL-17RA chimera is labeled with the HTRF acceptor chromophore (“D2”). The fluorescence-resonance energy transfer (FRET) depends on the vicinity of the donor chromophore to the acceptor, and interruption of the binding between the IL-17A and IL-17RA causes the reduction/loss of FRET. Therefore, this assay allows to evaluate the compound effect on the binding IL-17A and IL-17RA by monitoring the fluorescence intensity of donor vs acceptor. The assay was run using either Protocol 1 or Protocol 2 as described below.
Protocol 1. 40 nl of 2-fold serial diluted compound solution for total 22 dilution points is added into each well of a 1536-well, white, low-volume, non-binding plate (Greiner #782904), then 2 μl of FLAG tagged IL-17A at 2×final concentration (2.5 nM) in solution of PBS+0.01% Triton-X100 is added to each well. The assay plate is briefly centrifuged then incubated for 1 h at rt. A mixed solution is prepared containing 2×5 nM 10HIS×IL-17RA, 2×2.5 nM Eu-anti-FLAG (CISBIO), 2×5 nM D2-anti-HIS (CISBIO) in PBS+0.01% Triton-X100+200 mM Potassium Fluoride (Sigma 60238) and 2 μl of mix is added to each well of the assay plate. The plate is briefly centrifuged then incubated for 2 h at rt. The HTRF intensities at the wavelength of donor (620 nm) and acceptor (665 nm) are measured using BMG Pherastar. The ratio between intensities at two wavelengths is calculated and plotted against the compound concentration and the data is fitted to a one-site competition model to yield IC50 of the compound.

[2] = tested on: IL-17A-induced G-CSF production in human normal keratinocyte (NHK); assay: NHK assay: IL-17A-induced G-CSF production in normal human keratinocytes; assay type: cell-based; conditions: 24 h, IL-17A 5 ng/mL, G-CSF by HTRF, average if tested more than once
Method in brief: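 IC50 derives from G-CSF in supernatants, quantified by HTRF from a standard curve, with CellTiter-Glo viability compared to DMSO control. Before a 24 h, 37°C culture of normal human keratinocytes at 3000–4000 cells/well, compound dilutions were preincubated 1 h at rt with human IL-17A (5 ng/mL final), with 0.2% DMSO and 5% FBS.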

[3] = biological target: T1, IL-17A(FLAG-Tagged): IL-17RA(His-Tagged) binding; assay: IL-17A(FLAG-tagged):IL-17RA(His-tagged) binding disruption Eu-HTRF assay, Protocol 2; conditions: FLAG-IL-17A 1 nM; average if tested more than once
Method in brief: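 FLAG-tagged IL-17A (1 nM final) was preincubated with compound (2-fold serial dilutions, 22 points) for 1 h at rt in PBS + 0.01% Triton X-100. 10×His-IL-17RA, Eu-anti-FLAG and D2-anti-His in buffer containing KF were then added for 2 h at rt. IC50 came from the 665/615 nm HTRF ratio fitted to a one-site competition model.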

T1 sequence (Q16552 with tags, fused parts or gaps K93Q): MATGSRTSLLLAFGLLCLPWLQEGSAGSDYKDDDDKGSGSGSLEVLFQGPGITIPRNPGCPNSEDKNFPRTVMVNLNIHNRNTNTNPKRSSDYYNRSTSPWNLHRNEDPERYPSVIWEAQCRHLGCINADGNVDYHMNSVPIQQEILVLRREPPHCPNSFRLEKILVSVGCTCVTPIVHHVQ

IC50 [1] [nM] | IC50 [3] [nM] | SMILES | IC50 ([2]; Homo sapiens, Keratinocyte) [nM] | IC50 [2] [nM]
> 100 |  | O=C(N[C@H](c1cn2ncc(CN3CC(C(F)(F)F)CNC3=O)cc2n1)C1CCC(F)(F)CC1)c1nonc1C1CC1 (single isomer, unassigned) [Example 6, 4-Cyclopropyl-N—((S)-(4,4-difluorocyclohexyl)(7-(((R*)-2-oxo-5-(trifluoromethyl)tetrahydropyrimidin-1(2H)-yl)methyl)imidazo[1,2-b]pyridazin-2-yl)methyl)-1,2,5-oxadiazole-3-carboxamide] | > 100 | 
> 100 |  | CC(C)n1nccc1C(=O)N[C@H](c1cn2ncc(CN3CC(C)(C)CNC3=O)cc2n1)C1CCC(F)(F)CC1 [Example 34, (S)—N-((4,4-Difluorocyclohexyl)(7-((5,5-dimethyl-2-oxotetrahydropyrimidin-1(2H)-yl)methyl)imidazo[1,2-b]pyridazin-2-yl)methyl)-1-isopropyl-1H-pyrazole-5-carboxamide] | > 100 | 
< 50 |  | COCC(c1cnn2cc([C@H](COC(C)(C)C(F)(F)F)NC(=O)c3nonc3C)nc2c1)N1CC(F)(F)CNC1=O (single isomer, unassigned) [Example 15, N—((R)-1-(7-((S*)-1-(5,5-Difluoro-2-oxotetrahydropyrimidin-1(2H)-yl)-2-methoxyethyl)imidazo[1,2-b]pyridazin-2-yl)-2-((1,1,1-trifluoro-2-methylpropan-2-yl)oxy)ethyl)-4-methyl-1,2,5-oxadiazole-3-carboxamide] | < 50 | 
> 100 |  | CC1CCCN(Cc2cnn3cc([C@@H](NC(=O)c4ccnn4C(C)C)C4CCC(F)(F)CC4)nc3c2)C(=O)N1 (single isomer, unassigned) [Example 95, N—((S)-(4,4-Difluorocyclohexyl)(7-(((S*)-4-methyl-2-oxo-1,3-diazepan-1-yl)methyl)imidazo[1,2-b]pyridazin-2-yl)methyl)-1-isopropyl-1H-pyrazole-5-carboxamide] |  | > 100
50 to 100 |  | [2H]C([2H])([2H])C([2H])([2H])n1nccc1C(=O)N[C@H](c1cn2ncc(CN3CC(F)(F)CNC3=O)cc2n1)C1CCC(F)(F)CC1 [Example 25, (S)—N-((7-((5,5-Difluoro-2-oxotetrahydropyrimidin-1(2H)-yl)methyl)imidazo[1,2-b]pyridazin-2-yl)(4,4-difluorocyclohexyl)methyl)-1-(ethyl-d5)-1H-pyrazole-5-carboxamide] | < 50 | 
< 50 |  | O=C(N[C@H](c1cn2ncc(CN3CC(F)(F)CNC3=O)cc2n1)C1CCC(F)(F)CC1)c1nonc1C1CC1 [Example 20, (S)-4-Cyclopropyl-N-((7-((5,5-difluoro-2-oxotetrahydropyrimidin-1(2H)-yl)methyl)imidazo[1,2-b]pyridazin-2-yl)(4,4-difluorocyclohexyl)methyl)-1,2,5-oxadiazole-3-carboxamide] | < 50 | 
< 50 |  | O=C(N[C@H](c1cn2ncc([C@@H](C3CC3)N3CC(F)(F)CNC3=O)cc2n1)C1CCC(F)(F)CC1)c1nonc1C1CC1 [Example 7, 4-Cyclopropyl-N—((S)-(7-((R)-cyclopropyl(5,5-difluoro-2-oxotetrahydropyrimidin-1(2H)-yl)methyl)imidazo[1,2-b]pyridazin-2-yl)(4,4-difluorocyclohexyl)methyl)-1,2,5-oxadiazole-3-carboxamide] | < 50 | 
50 to 100 |  | O=C(N[C@H](c1cn2ncc(CN3CC(F)(F)CNC3=O)cc2n1)C1CCC(F)(F)CC1)c1conc1COC(F)F [Example 22, (S)—N-((7-((5,5-Difluoro-2-oxotetrahydropyrimidin-1(2H)-yl)methyl)imidazo[1,2-b]pyridazin-2-yl)(4,4-difluorocyclohexyl)methyl)-3-((difluoromethoxy)methyl)isoxazole-4-carboxamide] | 50 to 100 | 
> 100 |  | O=C(N[C@H](c1cn2ncc(CN3CCCNC3=O)cc2n1)C1CCC(F)(F)CC1)c1nonc1C1CC1 [Example 18, (S)-4-Cyclopropyl-N-((4,4-difluorocyclohexyl)(7-((2-oxotetrahydropyrimidin-1(2H)-yl)methyl)imidazo[1,2-b]pyridazin-2-yl)methyl)-1,2,5-oxadiazole-3-carboxamide] | > 100 | 
< 50 |  | CC(C)(OC[C@H](NC(=O)c1nonc1C1CC1)c1cn2ncc(CN3CC(F)(F)CNC3=O)cc2n1)C(F)(F)F [Example 17, (R)-4-Cyclopropyl-N-(1-(7-((5,5-difluoro-2-oxotetrahydropyrimidin-1(2H)-yl)methyl)imidazo[1,2-b]pyridazin-2-yl)-2-((1,1,1-trifluoro-2-methylpropan-2-yl)oxy)ethyl)-1,2,5-oxadiazole-3-carboxamide] | < 50 | 
> 100 |  | Cc1nonc1C(=O)N[C@H](c1cn2ncc(CN3CC(C)(C)CNC3=O)cc2n1)C1CCC(F)(F)CC1 [Example 32, (S)—N-((4,4-Difluorocyclohexyl)(7-((5,5-dimethyl-2-oxotetrahydropyrimidin-1(2H)-yl)methyl)imidazo[1,2-b]pyridazin-2-yl)methyl)-4-methyl-1,2,5-oxadiazole-3-carboxamide] | > 100 | 
50 to 100 |  | CC1CCCN(Cc2cnn3cc([C@@H](NC(=O)c4nonc4C4CC4)C4CCC(F)(F)CC4)nc3c2)C(=O)N1 (single isomer, unassigned) [Example 97, 4-Cyclopropyl-N—((S)-(4,4-difluorocyclohexyl)(7-(((S*)-4-methyl-2-oxo-1,3-diazepan-1-yl)methyl)imidazo[1,2-b]pyridazin-2-yl)methyl)-1,2,5-oxadiazole-3-carboxamide] |  | > 100
50 to 100 |  | [2H]C([2H])([2H])C([2H])([2H])n1nccc1C(=O)N[C@H](c1cn2ncc([C@@H](COC)N3CC(F)(F)CNC3=O)cc2n1)C1CCC(F)(F)CC1 [Example 13, N—((S)-(7-((S)-1-(5,5-Difluoro-2-oxotetrahydropyrimidin-1(2H)-yl)-2-methoxyethyl)imidazo[1,2-b]pyridazin-2-yl)(4,4-difluorocyclohexyl)methyl)-1-(ethyl-d5)-1H-pyrazole-5-carboxamide] | < 50 | 
< 50 |  | [2H]C([2H])([2H])C([2H])([2H])n1nccc1C(=O)N[C@H](c1cn2ncc([C@@H](C3CC3)N3CC(F)(F)CNC3=O)cc2n1)C1CCC(F)(F)CC1 [Example 9, N—((S)-(7-((R)-Cyclopropyl(5,5-difluoro-2-oxotetrahydropyrimidin-1(2H)-yl)methyl)imidazo[1,2-b]pyridazin-2-yl)(4,4-difluorocyclohexyl)methyl)-1-(ethyl-d5)-1H-pyrazole-5-carboxamide] | < 50 | 
 | < 50 | [2H]C1([2H])NC(=O)N([C@H](COC2CC2)c2cnn3cc([C@@H](NC(=O)c4nocc4CC(F)(F)F)C4CCC(F)(F)CC4)nc3c2)C([2H])([2H])C1(F)F [Example 107, N—((S)-(7-((S)-2-Cyclopropoxy-1-(5,5-difluoro-2-oxotetrahydropyrimidin-1(2H)-yl-4,4,6,6-d4)ethyl)imidazo[1,2-b]pyridazin-2-yl)(4,4-difluorocyclohexyl)methyl)-4-(2,2,2-trifluoroethyl)isoxazole-3-carboxamide] | < 50 | 
 | < 50 | [2H]C1([2H])NC(=O)N([C@H](COC)c2cnn3cc([C@H](CCC(C)(C)C(F)(F)F)NC(=O)c4nonc4C4CC4)nc3c2)C([2H])([2H])C1(F)F [Example 80, 4-Cyclopropyl-N—((S)-1-(7-((S)-1-(5,5-difluoro-2-oxotetrahydropyrimidin-1(2H)-yl-4,4,6,6-d4)-2-methoxyethyl)imidazo[1,2-b]pyridazin-2-yl)-5,5,5-trifluoro-4,4-dimethylpentyl)-1,2,5-oxadiazole-3-carboxamide] | < 50 | 
